Test results taken from US4216226A (priority 1977, dated 1980).
Counter-ions that a name gives are not always drawn. Like-named read-outs stand apart in the source and are kept apart here.

Experiments:
in vitro [1] = conditions: rainbow trout, rtg-2 cells
in vitro [2] = conditions: human, hela s3 cells
[3] = test system: Infectious pancrease necrosis virus (IPNV); assay type: cell-based
[4] = test system: Influenza virus A-O/PR-8 strain; assay type: cell-based
[5] = test system: Newcastle disease virus (NDV) Miyadera strain; assay type: cell-based
[6] = test system: Vesicular stomatitis virus (VSV); assay type: cell-based
[7] = test system: Vaccinia virus Lister strain; assay type: cell-based
Herpes virus = assay type: cell-based
[8] = test system: vaccinia virus Lister strain; assay type: in vivo, mice of the ICR strain; conditions: subcutaneous, 4 times first day, twice a day days 2-5, 10th day
[9] = test system: Influenza virus A0 /PR-8 strain; assay type: in vivo, mice of the ICR strain; conditions: intraperitoneal, twice a day for 3 days, mouse lung at 72 hours
[10] = test system: Newcastle disease virus Sato strain; assay type: in vivo, embryonated chick egg; conditions: for MDT (difference from control): Sato strain, 104 hours incubation
[11] = test system: Newcastle disease virus Komarov strain; assay type: in vivo, embryonated chick egg; conditions: for MDT (difference from control): Komarov strain, 104 hours incubation
[12] = test system: Newcastle disease virus Miyadera strain; assay type: in vivo, embryonated chick egg; conditions: for MDT (difference from control): Miyadera strain, 104 hours incubation
[13] = test system: Newcastle disease virus I(1) strain; assay type: in vivo, embryonated chick egg; conditions: 104 hours incubation
mice = conditions: mouse, in vivo, ip
viruses = conditions: cited from earlier work
[14] = test system: IPNV (infectious pancreas necrosis virus); assay: Preventing IPN virus in fish; assay type: in vivo, rainbow trout; conditions: 16 ppm water bath 96 hours, 18° C.; for Cumulative number of dying fish: 20 fish
Experimental: 40 Young (4-6 cm in body length) rainbow trout were sensitised by immersion for 3 hours under aeration in 7.5 liters of a water bath containing IPNV (infectious pancreas necrosis virus) which was prepared by diluting to a 1000-fold volume a cell stock of IPNV (virus titer: 10^6.301 TCID50 /ml) cultured in RTG-2 cells. Immediately after this sensitisation, the fish were divided into two groups each comprising 20 fish and each group was placed in two glass vessels containing 50 liters of water, respectively. The first group of fish was the treated group, while the second group of fish was the control group (untreated).
After the first group of fish was placed in the water-containing vessel, L-hydroxyureidomethyl glycine was dissolved in the water to a concentration of 16 ppm. in this vessel, whereupon the fish were treated during 96 hours with the water bath containing the active compound. Thereafter, the active solution of the bath was replaced by fresh water containing no active compound, and the fish were observed daily to count the number of the young fish which fell dead. The active compound was not added to the water in the second vessel containing the second group of fish (control group), although replacement of water was made in the second vessel. In this way, the effect of L-hydroxyureidomethyl glycine in preventing IPNV infection was estimated. All of the tests were conducted in the water at 18° C.

Influenza virus = assay type: cell-based
[15] = Vero cell, 37° C., 5-7 days, at MDC, 1/2 or 1/4 MDC, vs control
[16] = HeLa S3 cell, 37° C., 5-7 days, at MDC, 1/2 or 1/4 MDC, vs control
[17] = L-929 cell, 37° C., 5-7 days, at MDC, 1/2 or 1/4 MDC, vs control

Structure (SMILES)	MCC (in vitro [1]) [µg/mL]	MCC (in vitro [2]) [µg/mL]	Difference of -log TCID50 /ml, IPNV [3]	Difference of -log TCID50 /ml, Influenza virus [4, 15]	Difference of -log TCID50 /ml, NDV [5, 16]	Difference of -log TCID50 /ml, VSV [6, 17]	other results
O=C(O)C1NC2CC21 [L-3,5-Cyclo-2-pyrrolidylcarboxylic acid]	1000	> 1000	3.50	2.00	0.17		
O=C1O[C@H]([C@@H](O)CO)C(O)=C1O [L-Ascorbic acid, reference compound]	2000	125		0	0.83	1.00	
NCC(N)C(=O)O (racemic) [DL-Aminomethyl glycine hydrochloride]	3000	> 1000		1.00	1.50	0.33	Difference of -log TCID50 /ml, Vaccinia virus [7, 16]: 0.17; Difference of -log TCID50 /ml, Herpes virus (Herpes virus): > 2.50
NC(=O)NC[C@H](N)C(=O)O [L-Ureidomethyl glycine hydrochloride]	4000	> 1000	3.75		> 4.00	0.33	Difference of -log TCID50 /ml, Vaccinia virus [7, 16]: 1.17; Difference of -log TCID50 /ml, Herpes virus (Herpes virus): 1.50
NC(=O)NO [Hydroxyurea, reference compound]							Percent of inhibition of pock ([8]; 50 mg/kg): 42.8%
Cl.NC12CC3CC(CC(C3)C1)C2 [1-Adamantanamine hydrochloride, reference compound]	31.2	250	2.75	> 2.00			Per cent of Inhibition (virus multiplication, HA units) ([9]; 100 mg/kg): 76%
NC(=O)NCC(N)C(=O)O (racemic) [DL-Ureidomethyl glycine]	2000	> 1000	3.50		1.17		
NC(Cc1ccc(O)cn1)C(=O)O (racemic) [DL-p-Hydroxypyridylmethyl glycine]	1000	> 1000	3.50	0.50	> 3.00	> 2.83	
NC(=O)NC[C@H](N)C(=O)O [L-Ureidomethyl glycine]							MDT (difference from control) ([10]; 500 mg per egg): -6.4; MDT (difference from control) ([10]; 1,000 mg per egg): > 4.6; MDT (difference from control) ([11]; 500 mg per egg): > 13.8; MDT (difference from control) ([11]; 1,000 mg per egg): > 29.8; MDT (difference from control) ([12]; 500 mg per egg): 3.2; MDT (difference from control) ([12]; 1,000 mg per egg): -6.4; Δlog MLD ([12]; in vivo): 0; MDT (difference from control) ([13]; 500 mg per egg): > 5.2; MDT (difference from control) ([13]; 1,000 mg per egg): -1.6
NC(Cc1ccc(F)cc1)C(=O)O (racemic) [DL-p-fluoro-phenyl alanine, reference compound]	250	125	0	0	1.17	1.00	
N[C@@H](Cc1ccc(O)cn1)C(=O)O	500	500	3.75	1.00	> 4.00		Difference of -log TCID50 /ml, Vaccinia virus [7, 16]: > 1.97; Difference of -log TCID50 /ml, Herpes virus (Herpes virus): > 2.50; MDT (difference from control) ([10]; 500 mg per egg): > 12.1; MDT (difference from control) ([10]; 1,000 mg per egg): > 19.2; Δlog MLD ([10]; in vivo): 0.5; MDT (difference from control) ([11]; 500 mg per egg): 3.2; MDT (difference from control) ([11]; 1,000 mg per egg): 0; Δlog MLD ([11]; in vivo): 1.0; MDT (difference from control) ([12]; 500 mg per egg): -3.1; MDT (difference from control) ([12]; 1,000 mg per egg): 14.8; Acute toxicity LD0 (mice): > 1000 mg/kg; Per cent of Inhibition (virus multiplication, HA units) ([9]; 50 mg/kg): 52%; Per cent of Inhibition (virus multiplication, HA units) ([9]; 100 mg/kg): 77%; Percent of inhibition of pock ([8]; 6.2 mg/kg): 56.9%; MDT (difference from control) ([13]; 500 mg per egg): > 80.4; MDT (difference from control) ([13]; 1,000 mg per egg): > 16.8
NC(CCP(=O)(O)O)C(=O)O (racemic) [DL-phosphonoethyl glycine]	4000	250	1.30				Difference of -log TCID50 /ml, Vaccinia virus [7]: 1.17; Difference of -log TCID50 /ml, Herpes virus (Herpes virus; Hep No. 2 cell, 37° C., 5-7 days, at MDC, 1/2 or 1/4 MDC, vs control): 0.50; Difference of -log TCID50 /ml, VSV [6]: 0.50; Difference of -log TCID50 /ml, Influenza virus [4]: 1.00; Difference of -log TCID50 /ml, NDV [5]: 1.50
NC(Cc1ccc(F)cc1)C(=O)O (centres unmarked) [p-fluoro-phenyl alanine]							antiviral activity (reported) (viruses): exhibits an antiviral activity
NC[C@H](N)C(=O)O [L-Aminomethyl glycine hydrochloride]	4000	> 1000		1.00	1.50	0.67	Difference of -log TCID50 /ml, Vaccinia virus [7, 16]: 0.33; Difference of -log TCID50 /ml, Herpes virus (Herpes virus): > 2.50
CP(=O)(O)CC[C@H](N)C(=O)O [L-methylphosphinoethyl glycine, L-Methylphosphinoethyl glycine]							MDT (difference from control) ([10]; 250 mg per egg): > 30.6; MDT (difference from control) ([10]; 500 mg per egg): > 95.6; MDT (difference from control) ([11]; 250 mg per egg): > 4.8; MDT (difference from control) ([11]; 500 mg per egg): > 27.8; MDT (difference from control) ([12]; 250 mg per egg): 2.4; MDT (difference from control) ([12]; 500 mg per egg): > 45.6; Per cent of Inhibition (virus multiplication, HA units) ([9]; 50 mg/kg): 67%; MDT (difference from control) ([13]; 250 mg per egg): > 23.2; MDT (difference from control) ([13]; 500 mg per egg): 4.8
N[C@@H](CNC(=O)NO)C(=O)O [L-Hydroxyureidomethyl glycine]	4000	> 1000	4.00		0.50		Difference of -log TCID50 /ml, Vaccinia virus [7, 16]: 3.50; Survival rate ([14]; 67 days, control 10%): 95%; Cumulative number of dying fish ([14]; 28 days, control 0): 0; Cumulative number of dying fish ([14]; 46 days, control 2): 0; Cumulative number of dying fish ([14]; 55 days, control 13): 0; Cumulative number of dying fish ([14]; 67 days, control 18): 1; Acute toxicity LD0 (mice): > 3000 mg/kg; Per cent of Inhibition (virus multiplication, HA units) ([9]; 100 mg/kg): 65%; Percent of inhibition of pock ([8]; 25 mg/kg): 33.7%; Percent of inhibition of pock ([8]; 50 mg/kg): 48.0%
CP(=O)(O)CC[C@H](N)C(=O)O [L-Methylphosphinoethyl glycine sodium salt]	4000	> 1000			2.00		Difference of -log TCID50 /ml, Influenza virus (calculated from chick hemagglutination titer) (Influenza virus): > 7.3
COC(=O)[C@@H](N)Cc1ccc(O)cn1 [L-p-Hydroxypyridylmethyl glycine methylester hydrochloride]	1500	1000	3.75	1.00	2.00		Acute toxicity LD0 (mice): > 1000 mg/kg
